# According to US10799478B2, “Treatment of androgen deprivation therapy associated symptoms” (priority 2014, dated 2020):
# What was measured:
# Orx rats = test: Orchidectomized Rat Assay; format: in vivo; conditions: for SV Weight, % Sham: once daily 2 months
# in vivo = conditions: both, Sprague-Dawley, rat, in vivo, po
# Description: (§1) Vehicle controls (15 rats/sex in main study and 5 rats/sex in recovery study) are given daily oral gavage dose of 5% Vitamin E TPGS, 1% hydroxyethylcellulose, 0.05% Dow Corning Antifoam 1510-US in purified water. Fifteen males and 15 females are assigned to each treatment main study group. Five males and 5 females are assigned to the recovery study for the vehicle control and 150 mg/kg/day groups. […] All administrations are given in a 15 mL/kg volume.
# Sprague-Dawley rat = test: in vivo; conditions: for Male group mean AUC0-24 hr near termination / Prostate weight (mean % decrease): rats, 6 months
# Description: as §1
# healthy volunteers = test: Treatment of healthy volunteers (12 weeks); format: in vivo, human; conditions: after 12 weeks in healthy volunteers
compound,measurement,setting,value
"CC(C)OC(=O)N[C@H]1Cc2c(n(Cc3ccccn3)c3ccc(C#N)cc23)C1 (single isomer, unassigned) [Example 1]",LV-TA (cm2) ± SD,Orx rats; 1 mg/Kg/d,0.3378 ± 7.08E−03 cm2
same,LV-TBMC (mg) ± SD,Orx rats; 1 mg/Kg/d,1.54 ± 0.0256 mg
same,LV-TBMD (mg/cm3) ± SD,Orx rats; 1 mg/Kg/d,507.4 ± 6.931 mg/cm3
same,"SV Weight, % Sham",Orx rats; 1 mg/Kg/d po,5.6 % Sham
same,LV-TA (cm2) ± SD,Orx rats; 3 mg/Kg/d,0.362 ± 0.0138 ^ cm2
same,LV-TBMC (mg) ± SD,Orx rats; 3 mg/Kg/d,1.79 ± 0.095 mg
same,LV-TBMD (mg/cm3) ± SD,Orx rats; 3 mg/Kg/d,549 ± 15.965 mg/cm3
same,"SV Weight, % Sham",Orx rats; 3 mg/Kg/d po,5.5 % Sham
same,LV-TA (cm2) ± SD,Orx rats; 10 mg/Kg/d,0.3521 ± 0.0125 ^ cm2
same,LV-TBMC (mg) ± SD,Orx rats; 10 mg/Kg/d,1.7757 ± 0.0607 mg
same,LV-TBMD (mg/cm3) ± SD,Orx rats; 10 mg/Kg/d,562.843 ± 16.104 mg/cm3
same,"SV Weight, % Sham",Orx rats; 10 mg/Kg/d po,6.0 % Sham
same,LV-TA (cm2) ± SD,Orx rats; 20 mg/Kg/d,0.3563 ± 0.0102 ^ cm2
same,LV-TBMD (mg/cm3) ± SD,Orx rats; 20 mg/Kg/d,529.357 ± 10.052 mg/cm3
same,"SV Weight, % Sham",Orx rats; 20 mg/Kg/d po,6.1 % Sham
same,NOAEL,in vivo,< 15 mg/kg/day
same,morphologic findings in the testes,"Sprague-Dawley rat; all dose levels (15, 150, 1500 mg/kg/day)",considered to be adverse
same,accumulation after multiple doses,Sprague-Dawley rat; any dose group up to Day 182,not observed
same,higher body weight than concurrent controls,"Sprague-Dawley rat; females, end of treatment period",22%
same,body weight change compared to control,"Sprague-Dawley rat; males, end of treatment period",−12%
same,Male group mean AUC0-24 hr near termination,Sprague-Dawley rat; 15 mg/kg/day,15902 ng·h/mL
same,Male group mean AUC0-24 hr near termination,Sprague-Dawley rat; 150 mg/kg/day,34132 ng·h/mL
same,Prostate weight (mean % decrease),Sprague-Dawley rat; 150 mg/kg/day,↓ 30%
same,Male group mean AUC0-24 hr near termination,Sprague-Dawley rat; 1500 mg/kg/day,82690 ng·h/mL
same,Prostate weight (mean % decrease),Sprague-Dawley rat; 1500 mg/kg/day,↓ 34%
same,hematocrit,healthy volunteers,no significant changes
same,prostate specific antigen (PSA),healthy volunteers,no significant changes
